Columns and labels:
[1] = paclitaxel 100 mg/m^2; patients receiving PIs (nelfinavir, indinavir, other multiple protease inhibitors); Kaposi Sarcoma and HIV; cited from earlier work
[2] = Paclitaxel plasma pharmacokinetics, cycle 1 day 1; assay type: in vivo, human
[3] = Adverse events, NCI CTCAE version 4.0, worst grade in any cycle; assay type: in vivo, human; conditions: 2 patients, first vorinostat dose level (400 mg orally days 1-5 of each cycle)
[4] = Ritonavir cohort, cycle 1, paclitaxel 175 mg/m^2 IV with carboplatin

Row | differences in Cmax or AUCinf between the 2 cohorts ([2]; 6 patients, ritonavir vs non-ritonavir) | Cl [2, 4] | Time > C 0.5 µM [2, 4] | duration spent at a paclitaxel concentration >0.05 µM ([2]; non-ritonavir cohort) | duration spent at a paclitaxel concentration >0.05 µM ([2]; ritonavir cohort) | SMILES | Paclitaxel exposure as measured by AUC [1] | pharmacokinetic interaction with ritonavir ([2]; ritonavir at a boosting dose for ART in combination with paclitaxel) | toxicity of PCb combination with vorinostat [3]
1 | no significant differences | 4.1 L/hr/m^2 | 22.7 h | 23.8 h | 22.7 h | CC(=O)O[C@H]1C(=O)[C@@]2(C)[C@H]([C@H](OC(=O)c3ccccc3)[C@]3(O)C[C@H](OC(=O)[C@H](O)[C@@H](NC(=O)c4ccccc4)c4ccccc4)C(C)=C1C3(C)C)[C@]1(OC(C)=O)CO[C@@H]1C[C@@H]2O [Paclitaxel] | 5.5 ± 2.2 µM·h | no evidence for pharmacokinetic interaction | 
2 |  |  |  |  |  | O=C(CCCCCCC(=O)Nc1ccccc1)NO [vorinostat] |  |  | without prohibitive toxicity
